Patent US5260189A, “Synthetic HIV-like peptides their compositions and uses” (Immunodiagnostics, Inc., priority 1992, dated 1993)
“Also recorded” adds a separate entry of the source.

What was measured:
[1] = system: antibodies to HIV-2; experiment: Rapid EIA with latex reagents to detect antibodies to HIV-2; type: binding
Description: A 125 microliter volume of 10% latex was added to a 375 microliter volume of deionized water, and mixed with an equal volume (0.5 ml) of 1M carbodiimide, pH 4.5. The mixture was shaken gently a room temperature for 1 hour, and then washed 3 times by centrifugation at 9,000×g for 10 minutes, removal of supernate, and resuspension of the pellet in a 12-14 ml volume of deionized water, pH 4.5. The free peptides at 1 mg/ml concentration (500 micrograms/ml of each peptide 4S36 and 5S70), or the peptide-BSA conjugate of peptides 4S36 and 5S70 at 500 micrograms/ml were added to the final washed activated latex pellet (1 ml volume of peptide containing solution per 125 microliters original volume of latex). […] It was determined that this stock solution of latex coated with peptide-BSA conjugate could be diluted 1:10-1:30 with latex diluent buffer for use in the rapid EIA described below.
Serum specimens were diluted 1:8 for the rapid EIA in a serum diluent buffer consisting of 0.03M Tris, pH 8 containing 0.8% NaCl, 0.05% NaN3, 0.05% Triton x-100. […] The reaction was stopped after 3-4 minutes by adding a drop of 4N H2 SO4, and the test device could be retained as a permanent record of positive (blue-purple color) or negative (white membrane) until the results were recorded. […]

[2] = system: antibodies to SIV/HIV-2; experiment: EIA of peptide-protein conjugates coated on polystyrene microtiter plates, macaque sera; type: binding, rhesus macaque (Macaca mulatta)
Source text: For all of the immunoassays employing human serum, the serum samples were obtained from the King County Health Department, Seattle, Wash., U.S.A., and each serum had been characterized as positive or negative with respect to antibodies to HIV-1, as determined by testing with the commercially licensed Genetic Systems and or DuPont EIA tests. Serum from rhesus macaque monkeys (Macaca mulatta) was obtained from the University of Washington, Seattle, Wash., U.S.A., and had been characterized by a SIV whole virus lysate EIA as either containing or not containing antibodies to SIV which is nearly identical in sequence to HIV-2 in the region of the peptide epitopes studied.
(§1) The free peptides or peptide-protein conjugates of FIGS. 1-13 were initially screened for immunoreactivity by coating each well of polystyrene microtiter EIA plates (Costar, Cambridge, Mass., U.S.A.) with 0.2 ml amounts of concentrations of 5-50 micrograms/ml peptide in Tris buffer, 10 mM, pH 8.0, at 4° C. overnight. Peptides or peptide-protein conjugates showing immunoreactivity by EIA were then further diluted for coating to determine the minimal concentrations required that allowed maximal immunoreactivity with antibodies to HIV, and minimal nonspecific reactivity with normal sera. The EIA tests were performed as follows: The coating solution was removed from each well and the wells were blocked at 37° C. for 30 minutes with a solution of 50 mM phosphate, 100 mM NaCl, pH 7.4, 1% BSA, 0.5% gelatin. The wells were then aspirated dry with a microtiter plate washer and washed 3 times with a solution of 50 mM phosphate, 100 mM NaCl, 0.05% Tween 20, pH 7.4 (PBST). A 1:101 dilution (in PBST with 1% BSA, 1% NRS) of the primate serum to be tested was then added as 0.2 ml to each washed well and the plates were incubated at 37° C. for 30 minutes. The plates were then washed×3 with PBST, and 0.2 ml amounts of a 1:2000 dilution of goat anti-human (GAH) peroxidase enzyme conjugate (Organon Teknika, Cappel, Melvern, Pa., U.S.A.) that recognized human IgG, IgA, and IgM were added to each well, and the plates were incubated for 30 minutes at 37° C. The plates were then washed×3 with PBST and incubated with 0.2 ml/well substrate consisting of 0.1M citric acid pH 5.2, 0.1 mg/ml o-phenylene diamine, 0.01% H2 O2, at room temperature in the dark for 10 minutes. Reactions were stopped with 50 microliters of 4N H2 SO4, and the color development was quantitated in a Multiscan plate reader at A492. In each series of experiments positive and negative controls were included, and all tests were done in duplicate or quadruplicate. Most peptides and peptide conjugates were initially screened against a 1:101 dilution of pools of HIV positive or HIV negative sera, and the same serum pool was used to allow quantitative comparison of immunoreactivity of different free peptides or peptide-protein conjugates.
(§2) The peptides in FIGS. 1 and 5 were synthesized as described in Example 1 and conjugated to KLH or BSA as described in Example 2. These peptide-protein conjugates were coated to polystyrene microtiter plates all at a concentration 10 micrograms peptide/ml and evaluated for immunoreactivity as described in Example 3, using a 1:101 dilution of a pool of sera (HIV+/SIV+, respectively) containing antibodies to HIV-1 (FIG. 1) or to HIV-2 (FIG. 5), as well as pooled serum (HIV-/SIV-, respectively) containing no antibodies to HIV-1 or HIV-2. […] Since sera from patients infected with HIV-2 are relatively unavailable in the United States, the immunoreactivity of HIV-2 synthetic peptides was assessed using serum from macaques infected with SIV, obtained from the University of Washington Primate Center, Seattle, Wash., U.S.A. The AA sequence of SIV is nearly identical to HIV-2 in the region of the peptides synthesized (see Myers et al., Human Retroviruses and AIDS, 1988. A compilation of nucleic acid and amino acid sequences. Los Alamos National Laboratory, Los Alamos, N. Mex., 87545, USA).

[3] = system: antibodies to HIV-1; experiment: Rapid HIV-1 EIA with peptide reagents immobilized on latex in rapid test device; type: binding, human; conditions: passive adsorption
Description: A test device for performing rapid tests in less than 15 minutes was prepared as illustrated in FIGS. 14 and 15. Referring to FIGS. 14 and 15, the device comprises a plastic slide 10 (approximately 1 inch wide by 3/16 inch thick by 31/4 inches long) having a plurality of funnel-like wells 12, each having a capacity of approximately 200 microliters, an upper inflow tract rim 14 diameter of approximately 9 mm and a lower outflow tract 16 diameter of approximately 2 mm. The undersurface of the outflow tract 16 is designed so as to provide a smooth even contact with a membrane filter 18 placed next to it in the apparatus. The membrane filter separates reactants passing through it by size, retaining those particles above a predetermined size, such as above 0.22 microns, or above 0.45 microns in size (depending upon the specific filter chosen), through other filters placed into the apparatus might separate by binding or affinity (i.e. nitrocellulose, glass). […]
The mixture was shaken gently a room temperature for 1 hour, and then washed 3 times by centrifugation at 9,000×g for 10 minutes, removal of supernate, and resuspension of the pellet in a 12-14 ml volume of deionized water, pH 4.5. […] It was determined that this stock solution of latex coated with peptide-BSA conjugate could be diluted 1:10-1:30 with latex diluent buffer for use in the rapid EIA described below. […]

[4] = system: antibodies to HIV-1; experiment: EIA of peptide-protein conjugates coated on polystyrene microtiter plates, human sera; type: binding
Description: as §1, §2

Sequence	discrimination of HIV-2+ from HIV-2- serum samples, rapid EIA [1]	immunoreactivity with SIV/HIV-2 antibodies (FIG. 5) ([2]; C-terminal BSA-SMCC conjugates, 10 micrograms peptide/ml coating, 1:101 dilution of pooled SIV+ / SIV- macaque sera)	discrimination of positive from negative macaque sera (FIG. 7) ([2]; peptide-BSA conjugates)	performance of free peptide passively adsorbed to latex [3]	reactivity with sera not containing antibodies to HIV-1 (FIGS. 10C, 11) ([4]; BSA-SMCC conjugate, 85-87 negative human sera)	number of positive samples giving A492 less than 1.0 ([4]; BSA-SMCC conjugate, 98 positive human sera (FIGS. 11A, 11B))	positive/negative ratios (FIG. 9) ([4]; BSA-peptide conjugate, polystyrene plastic type 1 (low reactivity with normal human sera))
ARLNSWGCAFRQVCHGC [2S25]	capable of discriminating	Significant immunoreactivity; also recorded: best immunoreactivity; also recorded: maximally immunoreactive	most favorable performances				
VWGCSGKLICTTAVPGC [4S36, unnatural variant of HIV-1 gp41 peptide 2S09]				produced an immunoreactive reagent	acceptably low	none	≥ 20
